Values joined by “and” are separate entries in the source; they are usually repeats but may differ in a detail not shown here. Equal entries are not always repeated.
Columns and labels:
[1] = biological target: T1, Tyrosine-protein kinase receptor TYRO3 (Homo sapiens) (UniProt Q06418); test: Enzymatic radiometric [Km ATP] KinaseProfiler LeadHunter assay, kinase: Rse, catalogue number: 14-535KP The assay has been performed by Eurofins Discovery.; conditions: ATP concentration 45.0 uM, Test compound concentration 10.0 uM
T1 sequence (whole entry): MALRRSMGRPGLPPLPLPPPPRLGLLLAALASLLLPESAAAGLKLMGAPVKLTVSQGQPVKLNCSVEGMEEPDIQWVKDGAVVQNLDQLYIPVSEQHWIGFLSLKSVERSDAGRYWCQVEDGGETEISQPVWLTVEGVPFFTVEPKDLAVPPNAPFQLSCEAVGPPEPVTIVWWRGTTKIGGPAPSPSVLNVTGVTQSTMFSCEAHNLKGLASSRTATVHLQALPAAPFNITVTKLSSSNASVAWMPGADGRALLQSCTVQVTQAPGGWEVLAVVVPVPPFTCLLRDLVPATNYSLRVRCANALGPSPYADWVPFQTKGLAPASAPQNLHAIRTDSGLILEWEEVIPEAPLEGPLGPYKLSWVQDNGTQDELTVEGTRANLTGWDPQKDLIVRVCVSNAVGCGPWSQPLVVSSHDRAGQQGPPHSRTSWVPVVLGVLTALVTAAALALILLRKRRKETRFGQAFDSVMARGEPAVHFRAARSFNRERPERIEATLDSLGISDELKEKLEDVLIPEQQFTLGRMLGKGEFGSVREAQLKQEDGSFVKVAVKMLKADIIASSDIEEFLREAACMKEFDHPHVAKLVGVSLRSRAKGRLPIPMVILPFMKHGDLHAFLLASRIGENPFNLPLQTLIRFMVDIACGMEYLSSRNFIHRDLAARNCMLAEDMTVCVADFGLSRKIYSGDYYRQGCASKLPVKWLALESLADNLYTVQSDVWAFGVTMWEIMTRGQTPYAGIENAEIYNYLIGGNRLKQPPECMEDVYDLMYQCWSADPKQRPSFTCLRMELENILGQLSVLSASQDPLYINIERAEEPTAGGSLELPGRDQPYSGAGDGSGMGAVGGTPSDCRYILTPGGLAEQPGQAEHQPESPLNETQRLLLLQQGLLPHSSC

[2] = biological target: Protein kinase C theta type (Homo sapiens) (UniProt Q04759); test: Enzymatic radiometric [Km ATP] KinaseProfiler LeadHunter assay, kinase: PKC-theta, catalogue number: 14-444KP The assay has been performed by Eurofins Discovery.; conditions: ATP concentration 15.0 uM, Test compound concentration 10.0 uM
Sequence of Protein kinase C theta type (Homo sapiens) (Q04759 whole entry, looked up): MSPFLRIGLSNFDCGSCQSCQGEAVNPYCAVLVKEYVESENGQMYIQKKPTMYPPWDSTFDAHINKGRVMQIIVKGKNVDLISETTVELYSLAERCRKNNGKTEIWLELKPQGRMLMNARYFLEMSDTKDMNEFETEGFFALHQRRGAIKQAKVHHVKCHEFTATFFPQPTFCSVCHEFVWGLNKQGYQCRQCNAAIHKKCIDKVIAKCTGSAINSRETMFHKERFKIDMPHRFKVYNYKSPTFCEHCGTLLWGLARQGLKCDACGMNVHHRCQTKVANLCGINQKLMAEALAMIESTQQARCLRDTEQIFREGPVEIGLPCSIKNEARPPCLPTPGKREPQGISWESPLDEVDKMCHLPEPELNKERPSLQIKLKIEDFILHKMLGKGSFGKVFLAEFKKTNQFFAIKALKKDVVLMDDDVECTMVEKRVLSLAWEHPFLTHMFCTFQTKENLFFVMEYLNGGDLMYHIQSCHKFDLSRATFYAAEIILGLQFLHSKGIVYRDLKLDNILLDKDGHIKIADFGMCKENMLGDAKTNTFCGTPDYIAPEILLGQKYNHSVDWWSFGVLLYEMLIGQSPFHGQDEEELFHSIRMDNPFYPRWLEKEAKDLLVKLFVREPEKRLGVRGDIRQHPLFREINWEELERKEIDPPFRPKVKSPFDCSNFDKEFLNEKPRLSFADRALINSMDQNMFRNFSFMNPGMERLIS

[3] = biological target: RAF proto-oncogene serine/threonine-protein kinase (Homo sapiens) (UniProt P04049); test: Enzymatic radiometric [Km ATP] KinaseProfiler LeadHunter assay, kinase: c-RAF, catalogue number: 14-352KP The assay has been performed by Eurofins Discovery.; conditions: ATP concentration 120.0 uM, Test compound concentration 10.0 uM
Sequence of RAF proto-oncogene serine/threonine-protein kinase (Homo sapiens) (P04049 whole entry): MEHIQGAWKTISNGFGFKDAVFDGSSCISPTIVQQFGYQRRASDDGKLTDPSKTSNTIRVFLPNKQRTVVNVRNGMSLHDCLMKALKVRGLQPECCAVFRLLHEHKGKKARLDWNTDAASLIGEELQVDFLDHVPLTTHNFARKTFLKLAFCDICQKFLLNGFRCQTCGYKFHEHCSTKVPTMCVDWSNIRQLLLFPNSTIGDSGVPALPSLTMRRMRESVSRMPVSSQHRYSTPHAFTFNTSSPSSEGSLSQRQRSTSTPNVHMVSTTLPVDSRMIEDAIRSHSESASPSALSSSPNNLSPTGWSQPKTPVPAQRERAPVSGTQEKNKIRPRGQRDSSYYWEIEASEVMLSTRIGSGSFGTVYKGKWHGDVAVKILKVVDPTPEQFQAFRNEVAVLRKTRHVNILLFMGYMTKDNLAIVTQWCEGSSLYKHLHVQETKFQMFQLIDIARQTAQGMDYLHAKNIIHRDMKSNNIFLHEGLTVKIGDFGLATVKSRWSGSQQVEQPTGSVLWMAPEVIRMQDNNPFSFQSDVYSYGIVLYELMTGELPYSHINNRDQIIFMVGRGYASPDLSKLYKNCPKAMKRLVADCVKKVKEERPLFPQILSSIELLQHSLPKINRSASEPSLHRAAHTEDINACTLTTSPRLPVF

[4] = biological target: T2, Mitogen-activated protein kinase kinase kinase 7 (Homo sapiens) (UniProt O43318); test: Enzymatic radiometric [Km ATP] KinaseProfiler LeadHunter assay, kinase: TAK1, catalogue number: 14-600KP The assay has been performed by Eurofins Discovery.; conditions: ATP concentration 45.0 uM, Test compound concentration 10.0 uM
T2 sequence (whole entry): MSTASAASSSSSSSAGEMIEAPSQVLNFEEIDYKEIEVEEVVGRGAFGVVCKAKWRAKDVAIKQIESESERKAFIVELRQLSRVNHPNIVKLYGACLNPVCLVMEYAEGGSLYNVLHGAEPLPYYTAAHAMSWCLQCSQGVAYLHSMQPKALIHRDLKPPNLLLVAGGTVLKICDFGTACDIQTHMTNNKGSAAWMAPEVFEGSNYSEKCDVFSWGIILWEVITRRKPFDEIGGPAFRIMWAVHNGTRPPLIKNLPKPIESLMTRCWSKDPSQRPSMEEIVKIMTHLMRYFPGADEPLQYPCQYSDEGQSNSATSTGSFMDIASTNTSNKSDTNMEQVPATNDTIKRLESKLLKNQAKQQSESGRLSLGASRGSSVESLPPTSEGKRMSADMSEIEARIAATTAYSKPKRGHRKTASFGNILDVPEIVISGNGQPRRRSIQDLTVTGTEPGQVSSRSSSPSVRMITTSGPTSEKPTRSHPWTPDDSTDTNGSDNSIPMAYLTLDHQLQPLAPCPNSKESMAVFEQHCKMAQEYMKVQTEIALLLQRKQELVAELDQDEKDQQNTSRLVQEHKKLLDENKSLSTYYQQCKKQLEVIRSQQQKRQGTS

[5] = biological target: T3, Inhibitor of nuclear factor kappa-B kinase subunit alpha (Homo sapiens) (UniProt O15111); test: Enzymatic radiometric [Km ATP] KinaseProfiler LeadHunter assay, kinase: IKK-alpha, catalogue number: 14-461KP The assay has been performed by Eurofins Discovery.; conditions: ATP concentration 10.0 uM, Test compound concentration 10.0 uM
T3 sequence (whole entry): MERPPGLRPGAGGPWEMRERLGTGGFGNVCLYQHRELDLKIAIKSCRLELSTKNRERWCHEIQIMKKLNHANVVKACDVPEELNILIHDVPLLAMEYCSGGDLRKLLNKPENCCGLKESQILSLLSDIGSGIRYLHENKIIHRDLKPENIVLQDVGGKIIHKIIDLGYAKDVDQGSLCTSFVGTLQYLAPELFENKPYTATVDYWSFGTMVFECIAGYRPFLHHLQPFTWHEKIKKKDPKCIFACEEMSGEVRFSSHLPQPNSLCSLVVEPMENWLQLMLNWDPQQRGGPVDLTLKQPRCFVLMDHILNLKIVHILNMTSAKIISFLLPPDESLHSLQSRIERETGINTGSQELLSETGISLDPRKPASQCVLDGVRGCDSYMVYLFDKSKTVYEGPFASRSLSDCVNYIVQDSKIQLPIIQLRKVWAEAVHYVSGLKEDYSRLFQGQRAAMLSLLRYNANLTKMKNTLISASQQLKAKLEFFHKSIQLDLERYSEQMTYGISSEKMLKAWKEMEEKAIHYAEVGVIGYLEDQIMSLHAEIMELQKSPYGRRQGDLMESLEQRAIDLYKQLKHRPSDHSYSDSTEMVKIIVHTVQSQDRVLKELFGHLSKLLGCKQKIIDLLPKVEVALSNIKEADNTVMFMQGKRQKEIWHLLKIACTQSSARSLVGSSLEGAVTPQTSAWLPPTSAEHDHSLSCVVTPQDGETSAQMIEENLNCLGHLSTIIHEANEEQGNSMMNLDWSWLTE

[6] = biological target: Serine/threonine-protein kinase pim-1 (Homo sapiens) (UniProt P11309); test: Enzymatic radiometric [Km ATP] KinaseProfiler LeadHunter assay, kinase: Pim-1, catalogue number: 14-573KP The assay has been performed by Eurofins Discovery.; conditions: ATP concentration 90.0 uM, Test compound concentration 10.0 uM
Sequence of Serine/threonine-protein kinase pim-1 (Homo sapiens) (P11309 whole entry, looked up, canonical isoform): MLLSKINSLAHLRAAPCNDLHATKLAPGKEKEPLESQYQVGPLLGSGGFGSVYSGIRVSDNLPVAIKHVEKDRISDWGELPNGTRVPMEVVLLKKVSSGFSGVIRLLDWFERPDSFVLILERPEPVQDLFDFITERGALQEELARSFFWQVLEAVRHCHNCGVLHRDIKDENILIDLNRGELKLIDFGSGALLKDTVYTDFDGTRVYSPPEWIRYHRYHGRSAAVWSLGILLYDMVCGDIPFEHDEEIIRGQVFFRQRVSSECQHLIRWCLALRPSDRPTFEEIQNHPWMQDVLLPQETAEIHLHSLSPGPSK

[7] = biological target: Phosphatidylinositol 4,5-bisphosphate 3-kinase catalytic subunit gamma isoform (Homo sapiens) (UniProt P48736); test: Enzymatic radiometric [Km ATP] KinaseProfiler LeadHunter assay, kinase: PI3 Kinase (p120-gamma), catalogue number: 14-558KP The assay has been performed by Eurofins Discovery.; conditions: ATP concentration 100.0 uM, Test compound concentration 10.0 uM
Sequence of Phosphatidylinositol 4,5-bisphosphate 3-kinase catalytic subunit gamma isoform (Homo sapiens) (P48736 whole entry, looked up, canonical isoform): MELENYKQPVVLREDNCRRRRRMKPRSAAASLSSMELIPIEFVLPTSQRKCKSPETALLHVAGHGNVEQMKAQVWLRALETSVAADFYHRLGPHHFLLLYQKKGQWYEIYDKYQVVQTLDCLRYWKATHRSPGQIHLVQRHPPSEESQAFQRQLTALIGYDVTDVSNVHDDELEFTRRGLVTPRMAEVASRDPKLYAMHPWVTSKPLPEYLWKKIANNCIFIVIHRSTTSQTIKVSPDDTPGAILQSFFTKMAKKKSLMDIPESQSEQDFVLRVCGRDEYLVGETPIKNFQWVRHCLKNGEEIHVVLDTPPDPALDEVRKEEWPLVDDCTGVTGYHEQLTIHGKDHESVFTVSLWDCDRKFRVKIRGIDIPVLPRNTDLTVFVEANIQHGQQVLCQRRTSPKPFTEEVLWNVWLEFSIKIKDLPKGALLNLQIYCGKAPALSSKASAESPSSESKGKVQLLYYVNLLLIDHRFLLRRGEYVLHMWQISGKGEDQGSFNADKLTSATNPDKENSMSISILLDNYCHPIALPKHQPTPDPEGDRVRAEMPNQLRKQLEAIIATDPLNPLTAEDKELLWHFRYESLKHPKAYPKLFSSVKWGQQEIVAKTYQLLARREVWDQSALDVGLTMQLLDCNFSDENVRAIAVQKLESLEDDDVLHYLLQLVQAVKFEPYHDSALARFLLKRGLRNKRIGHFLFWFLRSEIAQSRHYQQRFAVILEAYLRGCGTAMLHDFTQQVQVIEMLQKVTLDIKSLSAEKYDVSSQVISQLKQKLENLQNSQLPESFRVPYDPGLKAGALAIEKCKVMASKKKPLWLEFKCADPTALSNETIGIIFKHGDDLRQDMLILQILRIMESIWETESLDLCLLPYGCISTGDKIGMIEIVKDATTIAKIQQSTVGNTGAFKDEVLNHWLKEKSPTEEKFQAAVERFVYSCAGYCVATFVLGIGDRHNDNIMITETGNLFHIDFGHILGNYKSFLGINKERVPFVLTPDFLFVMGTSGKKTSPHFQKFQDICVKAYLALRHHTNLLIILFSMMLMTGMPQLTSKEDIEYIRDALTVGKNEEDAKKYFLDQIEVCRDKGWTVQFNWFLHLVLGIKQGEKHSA

Row | Activity [1] | Activity [2] | Activity [3] | Activity [4] | Activity [5] | Activity [6] | Activity [7] | Structure (SMILES)
1 | 115% | 101% | 97% | 83% | 91% | 80% | 103% | CC(C)[C@@H](Nc1ncnc2[nH]ccc12)c1ccc2c(c1)S(=O)(=O)CCC2
2 | 89% | 91% | 102% | 99% | 84% | 97% | 93% | CNC(=O)Cn1cc(-c2cc3c(N[C@@H](c4ccc5c(c4)S(=O)(=O)CCC5)C(C)C)ncnc3[nH]2)cn1
3 | 81% | 106% | 100% | 90% | 79% | 93% | 96% | CNCc1cc(-c2cc3c(N[C@@H](c4ccc5c(c4)S(=O)(=O)CCC5)C(C)C)ncnc3[nH]2)co1
4 | 107% | 102% | 105% | 100% | 82% | 97% | 97% | CC(C)[C@@H](Nc1ncnc2[nH]c(C(=O)N[C@@H]3CCN(C)C3)cc12)c1ccc2c(c1)S(=O)(=O)CCC2
5 | 86% | 88% | 107% | 90% | 92% | 91% | 98% | CC(C)[C@H](Nc1ncnc2[nH]ccc12)c1ccc2c(c1)S(=O)(=O)CCC2
6 | 96% | 106% | 93% | 100% | 94% | 95% | 96% | Cc1nn(C)cc1-c1cc2c(N[C@H](c3ccc4c(c3)S(=O)(=O)CCC4)C(C)C)ncnc2[nH]1

Second part, the molecule before the results:

Row | Structure (SMILES) | Activity [1] | Activity [2] | Activity [3] | Activity [4] | Activity [5] | Activity [6] | Activity [7]
7 | COc1ccc([C@H](Cc2nnn[nH]2)NC(=O)c2ncnc3[nH]ccc23)cc1 | 100% | 91% | 103% | 99% | 98% | 99% | 88%
8 | Cn1ncc(-c2cc3c(N[C@@H](c4ccc5c(n4)OCCO5)C(C)(C)C)ncnc3[nH]2)c1C#N | 110% | 96% | 87% | 95% | 125% | 107% | 88%
9 | COc1ccc([C@@H](Cc2nnn[nH]2)NC(=O)c2ncnc3[nH]ccc23)cc1 | 88% | 90% | 90% | 88% | 99% | 91% | 89%
10 | CC(C)[C@H](Nc1ncnc2[nH]c(-c3cnn(C)c3C#N)cc12)c1ccc2c(n1)OCCO2 | 105% | 96% | 97% | 94% | 120% | 98% | 80%
11 | CC(C)[C@@H](Nc1ncnc2[nH]c(-c3cnn(C)c3C#N)cc12)c1ccc2c(n1)OCCO2 | 116% and 107% | 93% and 111% | 81% and 90% | 103% and 100% | 111% and 104% | 79% and 99% | 63% and 78%
12 | C[C@H](C(=O)O)[C@@H](NC(=O)c1ncnc2[nH]ccc12)c1ccc(Br)cc1 | 87% | 100% | 108% | 95% | 99% | 95% | 97%
